This is an account of results in US20220354835A1, “COMPOUNDS FOR DEGRADING TAU PROTEIN AGGREGATES AND USES THEREOF” (Aprinoia Therapeutics Limited, priority 2019, published 2022).

For orientation: Kd means the free concentration of one partner at which half of the binding sites on the other are occupied at equilibrium, for simple one-to-one binding. Higher therefore signals a looser complex. One may read the IC50 as the point on the concentration scale where inhibition reaches its midpoint.

In assay [1] the target is T1, heparin-induced aggregated tau (aTau), full-length 2N4R human Tau (Homo sapiens, UniProt P10636).
T1 construct: transformed with a full-length 2N4R tau expression plasmid; made in house; host or cells: E. coli BL21
T1 sequence (P10636 1-441 isoform P10636-8): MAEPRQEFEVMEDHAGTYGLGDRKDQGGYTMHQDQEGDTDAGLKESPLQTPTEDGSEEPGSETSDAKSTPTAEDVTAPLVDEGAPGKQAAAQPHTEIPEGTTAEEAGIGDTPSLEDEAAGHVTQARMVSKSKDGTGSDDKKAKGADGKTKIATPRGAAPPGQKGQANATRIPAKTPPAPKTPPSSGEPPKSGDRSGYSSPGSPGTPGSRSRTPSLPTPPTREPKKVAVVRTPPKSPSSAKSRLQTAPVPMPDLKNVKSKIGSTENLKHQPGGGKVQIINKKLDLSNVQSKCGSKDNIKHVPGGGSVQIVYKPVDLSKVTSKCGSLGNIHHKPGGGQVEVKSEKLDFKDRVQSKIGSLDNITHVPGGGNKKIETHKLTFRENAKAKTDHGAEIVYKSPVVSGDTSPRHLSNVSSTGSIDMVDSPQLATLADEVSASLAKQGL
In words: In vitro fluorometric aTau binding assay. The following applies: 0.04 μM aTau, serially diluted compound 10 to 0.00017 μM, 37° C. 1 hour, fluorescence. On the procedure:
(§1) (A) Expression and purification of human Tau: 1 mM IPTG (Sangon Biotech, Cat. No A100487) was used to induce production of tau by bacteria (BL21, Invitrogen, Cat. No C600003) transformed with a full-length 2N4R tau expression plasmid. After 3 hours, cell pellet was resuspended in lysis buffer (100 mM PIPES, 1 mM EGTA, 1 mM MgSO4, pH 6.8) and lysed by sonication followed by centrifugation (15,000 rpm, 15 min, 4° C.). The supernatant was then placed in a boiling water bath for 20 min, followed by centrifugation (15,000 rpm, 15 min, 4° C.). Supernatant was loaded onto a Q-Sepharose® Fast Flow column (GE healthcare, Cat. No 17-0510-01), the flow-through fraction was loaded onto an SP-Sepharose® Fast Flow column (GE healthcare, Cat. No 17-0729-01), and tau protein was eluted with elution buffer (100 mM PIPES, 1 M NaCl, 1 mM EGTA, 1 mM MgSO4, 0.2 M NaCl, pH 6.8). Collected fractions of tau-containing eluates were pooled, concentrated and dialyzed against HEPES buffer (25 mM HEPES, 0.1 mM EDTA, 0.5 mM DTT, 100 mM NaCl, pH 7.2) and stored at −80° C. in small aliquots until use. Protein concentration was determined by UV absorption.
(§2) (B) Preparation of heparin-induced aggregated tau (aTau): 2 μM of tau prepared in 30 mM Tris-HCl, pH 7.5 buffer was incubated in tube with 15 μM heparin (Sigma, Cat. No H3149) at 37° C. for 24 hours.
(D) In vitro fluorometric aTau binding assays: 2 μM aTau was diluted to 0.04 μM with 30 mM Tris-HCl (pH 6.8), and then incubated with serially diluted compound (three-fold serial dilutions, from 10 to 0.00017 μM) in a 96-well plate (Corning, Cat. No 3573) at 37° C. for 1 hour. Fluorescence intensity (excitation/emission=370/500 nm) of APN-0729 was read by microplate spectrometer (EnSpire 2300, PerkinElmer). Compound Kd values were calculated using the following equation: Y=Bmax* X (Kd+X), where X is the concentration of compound; Y is the fluorescence signal of (compound+aTau)−(compound+DMSO); and Bmax is the maximum signal.

In assay [2] the target is T1, heparin-induced aggregated tau (aTau), full-length 2N4R human Tau. Put plainly: PBB5 competition assay. The class given is binding. The following applies: 0.12 μM aTau. How it is done:
as §1, §2
(E) PBBS competition assay: 2 μM of aTau was diluted to 0.12 μM by […] (pH 6.8) and then incubated with 0.1 μM 2-(4-(2-(methylamino)pyridine-5-yl)-1,3-butadiene-1-yl)benzothiazole-6-ol (PBB5) and serially diluted compound (three-fold serial dilution, from 10 to 0.00017 μM) in a 96-well plate (Corning, Cat. No 3573) at 37° C. for 1 hour. Fluorescence intensity (excitation/emission=530/690 nm) of PBB5 was read by microplate spectrometer (EnSpire 2300, PerkinElmer). Percentage of competition was calculated using the following equation: (Max−well of compound alone)/(Max−Min)*100%, where Max=(Tau+PBB5) signals−(buffer+PBB5) signals; and Min=(buffer+PBB5) signals−(buffer+PBB5) signals.
The IC50 value of each compound was calculated with GraphPad Prism software using the “4 Parameter Logistic Model or Sigmoidal Dose-Response Model”:
Y=Bottom+(Top−Bottom)/(1+(IC50/×)^HillSlope)

In the case of `CN(C)c1ccc2nc(-c3ccc(-c4ccc(NCCOCCOCCOCCOCCOCCOc5ccc6c(c5)C(=O)N(C5CCC(=O)NC5=O)C6=O)nc4)cc3)sc2c1` (stereo not drawn) [Compound 160275, 2-[2,6-bis(oxo)piperidin-3-yl]-5-[2-[2-[2-[2-[2-[2-[[5-[4-[6-(dimethylamino)-1,3-benzothiazol-2-yl]phenyl]pyridin-2-yl]amino]ethoxy]ethoxy]ethoxy]ethoxy]ethoxy]ethoxy]isoindole-1,3-dione], in assay [1], the Kd worked out at 0.23 µM. The molecule further had an IC50 in assay [2] (0.1 μM PBB5, 37° C. 1 hour, PBB5 fluorescence 530/690 nm) of 1.29 µM. For the same molecule, the Emax in assay [2] (0.1 μM PBB5, compound up to 10 μM, read-out: Competition Assay with PBB5: Bmax (%)) stood at 96%.
